From patent publication US20240382629A1, “HETEROBIVALENT AND HOMOBIVALENT AGENTS TARGETING FIBROBLAST ACTIVATION PROTEIN ALPHA AND/OR PROSTATE-SPECIFIC MEMBRANE ANTIGEN” (The Johns Hopkins University, priority 2021, published 2024)

Test system: U87 tumor
Experiment: Biodistribution ([^18F]JHU1221823), carrier / specific activity study
Type: in vivo, mouse
Excerpt: Biodistribution of Representative Compounds

[1] = mean (one mouse), NOD/SCID, U87 tumor, Carrier 700, 60 min post injection
[2] = mean, + 0.05 nmole carrier, 60 min post injection
[3] = mean, + 0.1 nmole carrier, 60 min post injection
[4] = mean, + 0.25 nmole carrier, 60 min post injection
[5] = mean, NOD/SCID, U87 tumor, Carrier 350 (350 mCi/μmol), 60 min post injection
[6] = mean, Nude mice, U87 tumor, Baseline (~5000 mCi/μmol), 60 min post injection
[7] = mean, Nude mice, U87 tumor, Carrier 350 (350 mCi/μmol), 60 min post injection
[8] = mean, Nude mice, U87 tumor, Carrier 700, 60 min post injection
[9] = mean, U87 tumor, Baseline, second block (stands before <NOD/SCID> heading), 60 min post injection

Compound: N#C[C@@H]1CCCN1C(=O)CNC(=O)c1ccnc2ccc(OCCCNC(=O)CCOCCOCCOCCOCCNC(=O)[C@H](CCCCNC(=O)c3ccc([18F])nc3)NC(=O)CN3CCN(CC(=O)O)CCN(CC(=O)O)CCN(CC(=O)O)CC3)cc12 [[^18F]JHU1221823]
- Bladder % ID/g [1]: 8.20 % ID/g
- Blood % ID/g [1]: 5.82 % ID/g
- Brain % ID/g [1]: 0.16 % ID/g
- Fat % ID/g [1]: 0.90 % ID/g
- Femur % ID/g [1]: 2.41 % ID/g
- Heart % ID/g [1]: 3.48 % ID/g
- Kidney % ID/g [1]: 2.45 % ID/g
- Large intestine % ID/g [1]: 2.26 % ID/g
- Liver % ID/g [1]: 2.36 % ID/g
- Lung % ID/g [1]: 3.56 % ID/g
- Muscle % ID/g [1]: 1.99 % ID/g
- Pancreas % ID/g [1]: 13.03 % ID/g
- Salivary gland % ID/g [1]: 11.31 % ID/g
- Small intestine % ID/g [1]: 3.48 % ID/g
- Spleen % ID/g [1]: 1.46 % ID/g
- Stomach % ID/g [1]: 1.64 % ID/g
- Tumor % ID/g [1]: 7.79 % ID/g
- Bladder % ID/g (mean, + 0.01 nmole carrier): 2.00 % ID/g
- Blood % ID/g (mean, + 0.01 nmole carrier): 11.29 % ID/g
- Brain % ID/g (mean, + 0.01 nmole carrier): 0.30 % ID/g
- Fat % ID/g (mean, + 0.01 nmole carrier): 0.34 % ID/g
- Femur % ID/g (mean, + 0.01 nmole carrier): 3.53 % ID/g
- Heart % ID/g (mean, + 0.01 nmole carrier): 4.62 % ID/g
- Kidney % ID/g (mean, + 0.01 nmole carrier): 2.96 % ID/g
- Large intestine % ID/g (mean, + 0.01 nmole carrier): 1.62 % ID/g
- Liver % ID/g (mean, + 0.01 nmole carrier): 3.09 % ID/g
- Lung % ID/g (mean, + 0.01 nmole carrier): 6.15 % ID/g
- Muscle % ID/g (mean, + 0.01 nmole carrier): 1.88 % ID/g
- Pancreas % ID/g (mean, + 0.01 nmole carrier): 4.07 % ID/g
- Salivary gland % ID/g (mean, + 0.01 nmole carrier): 7.47 % ID/g
- Small intestine % ID/g (mean, + 0.01 nmole carrier): 2.20 % ID/g
- Spleen % ID/g (mean, + 0.01 nmole carrier): 2.01 % ID/g
- Stomach % ID/g (mean, + 0.01 nmole carrier): 1.49 % ID/g
- Tumor % ID/g (mean, + 0.01 nmole carrier): 2.37 % ID/g
- Bladder % ID/g [2]: 4.29 % ID/g
- Blood % ID/g [2]: 7.55 % ID/g
- Brain % ID/g [2]: 0.21 % ID/g
- Fat % ID/g [2]: 0.78 % ID/g
- Femur % ID/g [2]: 3.25 % ID/g
- Heart % ID/g [2]: 3.03 % ID/g
- Kidney % ID/g [2]: 2.29 % ID/g
- Large intestine % ID/g [2]: 1.53 % ID/g
- Liver % ID/g [2]: 2.13 % ID/g
- Lung % ID/g [2]: 4.10 % ID/g
- Muscle % ID/g [2]: 1.83 % ID/g
- Pancreas % ID/g [2]: 5.35 % ID/g
- Salivary gland % ID/g [2]: 10.93 % ID/g
- Small intestine % ID/g [2]: 1.82 % ID/g
- Spleen % ID/g [2]: 1.50 % ID/g
- Stomach % ID/g [2]: 1.27 % ID/g
- Tumor % ID/g [2]: 3.42 % ID/g
- Bladder % ID/g [3]: 1.75 % ID/g
- Blood % ID/g [3]: 4.10 % ID/g
- Brain % ID/g [3]: 0.12 % ID/g
- Fat % ID/g [3]: 1.65 % ID/g
- Femur % ID/g [3]: 3.72 % ID/g
- Heart % ID/g [3]: 1.84 % ID/g
- Kidney % ID/g [3]: 2.01 % ID/g
- Large intestine % ID/g [3]: 2.35 % ID/g
- Liver % ID/g [3]: 1.16 % ID/g
- Lung % ID/g [3]: 2.57 % ID/g
- Muscle % ID/g [3]: 1.97 % ID/g
- Pancreas % ID/g [3]: 4.67 % ID/g
- Salivary gland % ID/g [3]: 8.31 % ID/g
- Small intestine % ID/g [3]: 1.64 % ID/g
- Spleen % ID/g [3]: 0.96 % ID/g
- Stomach % ID/g [3]: 1.00 % ID/g
- Tumor % ID/g [3]: 5.08 % ID/g
- Bladder % ID/g [4]: 2.51 % ID/g
- Blood % ID/g [4]: 1.90 % ID/g
- Brain % ID/g [4]: 0.08 % ID/g
- Fat % ID/g [4]: 0.51 % ID/g
- Femur % ID/g [4]: 4.26 % ID/g
- Heart % ID/g [4]: 0.91 % ID/g
- Kidney % ID/g [4]: 1.92 % ID/g
- Large intestine % ID/g [4]: 0.65 % ID/g
- Liver % ID/g [4]: 0.75 % ID/g
- Lung % ID/g [4]: 1.37 % ID/g
- Muscle % ID/g [4]: 1.25 % ID/g
- Pancreas % ID/g [4]: 1.77 % ID/g
- Salivary gland % ID/g [4]: 3.31 % ID/g
- Small intestine % ID/g [4]: 0.91 % ID/g
- Spleen % ID/g [4]: 0.46 % ID/g
- Stomach % ID/g [4]: 0.69 % ID/g
- Tumor % ID/g [4]: 3.52 % ID/g
- Bladder % ID/g [5]: 4.33 % ID/g
- Blood % ID/g [5]: 4.14 % ID/g
- Brain % ID/g [5]: 0.09 % ID/g
- Fat % ID/g [5]: 0.85 % ID/g
- Femur % ID/g [5]: 3.43 % ID/g
- Heart % ID/g [5]: 2.14 % ID/g
- Kidney % ID/g [5]: 2.13 % ID/g
- Large intestine % ID/g [5]: 2.08 % ID/g
- Liver % ID/g [5]: 1.76 % ID/g
- Lung % ID/g [5]: 2.74 % ID/g
- Muscle % ID/g [5]: 2.03 % ID/g
- Pancreas % ID/g [5]: 10.18 % ID/g
- Salivary gland % ID/g [5]: 9.49 % ID/g
- Small intestine % ID/g [5]: 2.29 % ID/g
- Spleen % ID/g [5]: 1.80 % ID/g
- Stomach % ID/g [5]: 1.47 % ID/g
- Tumor % ID/g [5]: 8.64 % ID/g
- Bladder % ID/g [6]: 2.38 % ID/g
- Blood % ID/g [6]: 11.46 % ID/g
- Brain % ID/g [6]: 0.23 % ID/g
- Fat % ID/g [6]: 0.99 % ID/g
- Femur % ID/g [6]: 2.41 % ID/g
- Heart % ID/g [6]: 5.54 % ID/g
- Kidney % ID/g [6]: 2.91 % ID/g
- Large intestine % ID/g [6]: 1.40 % ID/g
- Liver % ID/g [6]: 3.31 % ID/g
- Lung % ID/g [6]: 6.97 % ID/g
- Muscle % ID/g [6]: 1.75 % ID/g
- Pancreas % ID/g [6]: 3.36 % ID/g
- Salivary gland % ID/g [6]: 6.91 % ID/g
- Small intestine % ID/g [6]: 2.70 % ID/g
- Spleen % ID/g [6]: 2.06 % ID/g
- Stomach % ID/g [6]: 1.23 % ID/g
- Tumor % ID/g [6]: 2.33 % ID/g
- Bladder % ID/g [7]: 1.73 % ID/g
- Blood % ID/g [7]: 5.84 % ID/g
- Brain % ID/g [7]: 0.14 % ID/g
- Fat % ID/g [7]: 0.89 % ID/g
- Femur % ID/g [7]: 4.15 % ID/g
- Heart % ID/g [7]: 2.50 % ID/g
- Kidney % ID/g [7]: 2.07 % ID/g
- Large intestine % ID/g [7]: 1.76 % ID/g
- Liver % ID/g [7]: 1.90 % ID/g
- Lung % ID/g [7]: 3.45 % ID/g
- Muscle % ID/g [7]: 2.41 % ID/g
- Pancreas % ID/g [7]: 6.29 % ID/g
- Salivary gland % ID/g [7]: 11.15 % ID/g
- Small intestine % ID/g [7]: 2.42 % ID/g
- Spleen % ID/g [7]: 1.29 % ID/g
- Stomach % ID/g [7]: 1.56 % ID/g
- Tumor % ID/g [7]: 2.27 % ID/g
- Bladder % ID/g [8]: 2.23 % ID/g
- Blood % ID/g [8]: 9.94 % ID/g
- Brain % ID/g [8]: 0.20 % ID/g
- Fat % ID/g [8]: 0.49 % ID/g
- Femur % ID/g [8]: 3.06 % ID/g
- Heart % ID/g [8]: 4.65 % ID/g
- Kidney % ID/g [8]: 2.53 % ID/g
- Large intestine % ID/g [8]: 1.62 % ID/g
- Liver % ID/g [8]: 2.81 % ID/g
- Lung % ID/g [8]: 5.57 % ID/g
- Muscle % ID/g [8]: 2.07 % ID/g
- Pancreas % ID/g [8]: 3.91 % ID/g
- Salivary gland % ID/g [8]: 8.13 % ID/g
- Small intestine % ID/g [8]: 2.18 % ID/g
- Spleen % ID/g [8]: 1.72 % ID/g
- Stomach % ID/g [8]: 1.37 % ID/g
- Tumor % ID/g [8]: 2.01 % ID/g
- Bladder % ID/g [9]: 6.92 % ID/g
- Blood % ID/g [9]: 10.99 % ID/g
- Brain % ID/g [9]: 0.22 % ID/g
- Fat % ID/g [9]: 0.62 % ID/g
- Femur % ID/g [9]: 2.37 % ID/g
- Heart % ID/g [9]: 6.95 % ID/g
- Kidney % ID/g [9]: 3.41 % ID/g
- Large intestine % ID/g [9]: 2.18 % ID/g
- Liver % ID/g [9]: 4.38 % ID/g
- Lung % ID/g [9]: 7.03 % ID/g
- Muscle % ID/g [9]: 1.64 % ID/g
- Pancreas % ID/g [9]: 8.17 % ID/g
- Salivary gland % ID/g [9]: 11.89 % ID/g
- Small intestine % ID/g [9]: 3.66 % ID/g
- Spleen % ID/g [9]: 2.16 % ID/g
- Stomach % ID/g [9]: 1.81 % ID/g
- Tumor % ID/g [9]: 3.08 % ID/g
- Bladder % ID/g (mean, carrier not given): 4.53 % ID/g
- Blood % ID/g (mean, carrier not given): 9.54 % ID/g
- Brain % ID/g (mean, carrier not given): 0.22 % ID/g
- Fat % ID/g (mean, carrier not given): 1.07 % ID/g
- Femur % ID/g (mean, carrier not given): 2.83 % ID/g
- Heart % ID/g (mean, carrier not given): 4.65 % ID/g
- Kidney % ID/g (mean, carrier not given): 2.73 % ID/g
- Large intestine % ID/g (mean, carrier not given): 1.49 % ID/g
- Liver % ID/g (mean, carrier not given): 2.99 % ID/g
- Lung % ID/g (mean, carrier not given): 5.72 % ID/g
- Muscle % ID/g (mean, carrier not given): 1.78 % ID/g
- Pancreas % ID/g (mean, carrier not given): 2.14 % ID/g
- Salivary gland % ID/g (mean, carrier not given): 6.93 % ID/g
- Small intestine % ID/g (mean, carrier not given): 3.02 % ID/g
- Spleen % ID/g (mean, carrier not given): 2.15 % ID/g
- Stomach % ID/g (mean, carrier not given): 1.14 % ID/g
- Tumor % ID/g (mean, carrier not given): 5.71 % ID/g
